Columns and labels:
[1] = Antimicrobial activity of pure commercial preparations; type: cell-based; conditions: concentrations as high as 0.125M
Source text: Reuterin Is a Product of Glycerol Fermentation. Reuterin is a new product associated with the same type of heterolactic fermentation of glycerol that occurs in other Lactobacillus species. Reuterin can be isolated and identified as a product of glycerol fermentation by L. reuteri using HPLC.

[2] = tested on: E. coli; assay: Co-culture of E. coli with and without L. reuteri 1063 on various substrates (Table 1); type: cell-based; set-up: % Inhibition: concentration or dose not given beside the values; conditions: for E. coli (CFU/ml) after 6 hours: substrate 20 mM (C6, C5) or 40 mM (C3), inoculum 5 x 10^6 CFU per ml E. coli; for % Inhibition: E. coli with versus without L. reuteri 1063 on the substrate, 6 hours
Procedure: (§1) Conditions under which reuterin is produced have been determined. Reuterin is not produced under aerobic conditions (atmospheric oxygen concentration) but under reduced oxygen tension. It is produced when L. reuteri is cultured anaerobically (or semi-anaerobically in still culture) in the MIC assay medium described above containing 20-500 mM glycerol or glyceraldehyde in place of glucose as the major carbon and energy source. […] Twenty other substances, including hexoses, hexitols, pentoses, pentitols, disaccharides and a variety of phosphorylated and non-phosphorylated C3-substances, were tested for their ability to support reuterin production. […] The medium, containing a substrate at 20 mM (C6 and C5 substrates) or 40 mM (C3 substrates) concentrations, was inoculated with 5 x 10^6 colony-forming units (CFU) per ml E. coli with and without L. reuteri. Only glycerol and glyceraldehyde yielded reuterin. Also, réuterin production from glycerol is inhibited when glucose or another growth substrate is included in the production medium. The results shown in Table 2 indicate the percent inhibition in viable count of a 6.7 x 10^7 CFU per ml E. coli inoculum by supernatant fractions of L. reuteri grown on various indicated substrates at 40 mM concentrations.

[3] = tested on: E. coli; assay: Inhibition of E. coli by supernatant fractions of L. reuteri grown on various substrates (Table 2); type: cell-based; conditions: for % Inhibition: percent inhibition in viable count of 6.7 x 10^7 CFU per ml E. coli inoculum by supernatant fraction, substrate 40 mM; for Growth of E. coli presence of centrifuged culture medium CFU/ml after 6 hours: supernatant fraction of L. reuteri grown on the substrate at 40 mM, inoculum 6.7 x 10^7 CFU per ml E. coli
Procedure: as §1

[4] = tested on: L. reuteri; assay: Sensitivity of L. reuteri itself to reuterin; type: cell-based
Procedure: (§2) Antimicrobial Activity. Reuterin is a broad-spectrum antimicrobial agent. Reuterin functions as a bacteriocide. […] The indicated concentrations (CFU per ml) of E. coli (solid lines) and L. reuteri 1063 (dashed lines) were inoculated (zero time) into the glycerol casein hydrolysate medium described above (o), the same medium minus citrate (•) and the same medium minus glycerol (X). The co-cultures were incubated semi-anaerobically (still cultures) at 37 degrees C with samples removed at the indicated intervals to determine the numbers (CFU per ml) of E. coli and L. reuteri present. […] All Gram-negative bacterial genera tested thus far (Escherichia, Shigella, Salmonella, Proteus and Pseudomonas) and all Gram positive genera tested (Staphylococcus, Streptococcus, Clostridium, Bacillus, Leuconostoc and Lactobacillus) are sensitive to reuterin. Somewhat higher concentrations of reuterin are required, however, to kill representatives of the latter three genera. A lower eucaryote, the yeast Saccharomyces cerevisiae, is also killed by reuterin. Also shown in this table is the ability of various species tested to stimulate reuterin production by the heterologous procedure.

[5] = tested on: Lambda phage; assay: Reuterin added to phage-infected bacterial cultures: virus PFUs (Figure 13); type: cell-based; conditions: 10 units of reuterin; four hours; compared to the reuterin-free control culture
Procedure: (§3) Antiviral Activity. Reuterin is also effective in preventing virus replication. […] It appears from preliminary results with ^14C-labeled glycerol that 4 ug of reuterin in 0.5 ml solution is about the equivalent of 1 unit of reuterin. After four hours, the number of colony-forming units (CFUs) of the host cell and the number of plaque-forming units (PFUs) of the viruses were assayed using standard microbiological techniques. With no reuterin added, the number of microbial cells had increased about 100-fold in the four-hour period. With E. coli, addition of 10 units of reuterin caused an approximate 100-fold decrease in the number of cells and more than a 1000-fold decrease in the number of PFUs of the lambda phage as compared to the reuterin-free control culture after incubation for four hours.

[6] = tested on: Escherichia coli; assay: Reuterin added to phage-infected bacterial cultures: host CFUs (Figure 13); type: cell-based; conditions: 10 units of reuterin; four hours; compared to the reuterin-free control culture
Procedure: as §3

[7] = tested on: E. coli K12; assay: Food preservation: E. coli-inoculated ground beef (Figure 15); conditions: 75 units (U) of reuterin per gram of beef; 4°C; 9-day incubation period
Procedure: Ground beef purchased from a local supermarket was thoroughly inoculated and mixed with approximately 10^5CFU/ml of E. coli K12 cells. After mixing, the material was divided into 2 portions. One portion was an untreated control (no reuterin), the other portion received 75 units (U) of reuterin per gram of beef. Samples were stored at 4°C with portions removed at indicated times for bacteriological analysis. In this experiment the determination of viable cells (CFU/g beef) was conducted as described for Figure 14 except that Difco McConkey's Agar (relatively specific for coliform-like bacteria) was used.

[8] = tested on: Leuconostoc mesenteroides; assay: Sensitivity to reuterin (Table 6); type: cell-based
Procedure: as §2

[9] = tested on: Bacillus megaterium; assay: Sensitivity to reuterin (Table 6); type: cell-based
Procedure: as §2

[10] = tested on: Pediococcus cerevisiae; assay: Sensitivity to reuterin (Table 6); type: cell-based
Procedure: as §2

[11] = tested on: Saccharomyces cerevisiae; assay: Sensitivity to reuterin (Table 6); type: cell-based
Procedure: as §2

[12] = tested on: Clostridium sporogenes; assay: Sensitivity to reuterin (Table 6); type: cell-based
Procedure: as §2

[13] = tested on: phage 8014-B2; assay: Reuterin added to phage-infected bacterial cultures: virus PFUs versus host CFUs (Figure 13); type: cell-based, Lactobacillus plantarum; conditions: reuterin amounts at or greater than 25 units; four hours
Procedure: as §3

[14] = Characterizations of reuterin in crude preparations; type: physicochemical
[15] = tested on: ground beef microflora; assay: Food preservation: ground beef microflora (Figure 14); conditions: 50 and 100 units per g; stored at 4 degrees C; through the 6-day test period
Procedure: Reuterin is an effective food preservative. Ground beef purchased from a local supermarket was divided into 4 portions. One portion was untreated, the others were treated with 10, 50 and 100 units of reuterin per gram of the meat. All samples were stored at 4 degrees C with samples taken at indicated days for bacteriological analysis.
Beef samples were removed and diluted 1:10 (1 g beef: 9 ml sterile H2O). Subsequent decimal dilutions were made as needed and samples were plated onto Difco Nutrient Agar. These samples were incubated at 27°C for 24 hours and counted as colony forming units per gram ground beef (CFU/g). […] With the higher levels of reuterin (50 and 100 units per g) the indigenous population of bacteria was reduced and remained greater than 4 log units lower than the control sample through the 6-day test period.

[16] = tested on: E. coli; assay: Bacteriocidal activity in E. coli / L. reuteri 1063 co-culture in glycerol medium (Figure 5); type: cell-based; conditions: glycerol present; co-culture with L. reuteri 1063, still culture, 37 degrees C; few hours after first 3-4 hours
Procedure: as §2

[17] = tested on: Tryoanosoma cruzi; assay: In vitro growth of the protozoan parasite; type: cell-based; conditions: final concentration of approximately 20 MIC units ml^-1
[18] = tested on: E. coli K12; assay: Minimum Inhibitory Concentration (MIC) procedure; type: cell-based; conditions: chemically synthesized as described by Hall, compared with biologically synthesized reuterin
Procedure: Reuterin. When Lactobacillus reuteri cells capable of producing reuterin are placed under certain favorable conditions, reuterin is produced. A number of assays have been developed to detect and quantitate reuterin. A standard Minimum Inhibitory Concentration (MIC) procedure was adopted to detect reuterin and to elucidate factors affecting its production. E. coli K12 is used as the susceptible test microorganism and the assay is carried-out as follows. Overnight cultures of E. coli are harvested, washed twice with sterile 0.05 sodium phosphate buffer (pH 7.5), suspended in this buffer and adjusted to 60 percent transmission (A 420 nm) using a Spectronic 70 instrument. This suspension is diluted 1:100 and 0.1 ml aliquots are used to inoculate 1.0 ml of the MIC assay medium which contains (g/L): vitamin-free casein hydrolysate, 3; ammonium citrate, 1.9; citric acid, 0.63; KH2PO4, 12.6; MgSO4 (hepta-hydrate), 0.2; pH adjusted to 7.0 and 20 mM glucose added after sterilization. […] Relative reuterin concentrations (units reuterin) are then calculated as the reciprocal of the sample dilution preceding the dilution allowing visible growth of the indicator cells. Another assay relating MIC values to reuterin peak heights as determined by HPLC analyses (described below) has also been developed.

Row | Compound | E. coli (CFU/ml) after 6 hours ([2]; Addition of L. reuteri 1063: +) | E. coli (CFU/ml) after 6 hours ([2]; Addition of L. reuteri 1063: -) | % Inhibition [2] [%] | % Inhibition [3] [%] | Growth of E. coli presence of centrifuged culture medium CFU/ml after 6 hours [3] | also measured
1 | OCCCO [1,3-propanediol] | – | – | – | – | – | antimicrobial activity [1]: essentially devoid of antimicrobial activity
2 | OC[C@@H](O)C(O)[C@H](O)CO [Arabitol] | 2.9x10^6 CFU/ml | 2.7x10^6 CFU/ml | 0 | – | – | –
3 | O=C(CO)COP(=O)(O)O [Dihydroxyacetone-P] | 4.1x10^6 CFU/ml | 3.4x10^6 CFU/ml | 0 | 0 | 3.7x10^9 CFU/ml | –
4 | O=C(CO)[C@@H](O)[C@H](O)[C@H](O)CO [Fructose] | 3.0x10^8 CFU/ml | 2.1x10^8 CFU/ml | 0 | – | – | –
5 | O=C(O)[C@H](O)[C@@H](O)[C@H](O)[C@H](O)CO [Gluconate] | 3.2x10^8 CFU/ml | 3.5x10^8 CFU/ml | 0 | – | – | –
6 | O=CC(O)CO (stereo not shown) [Glyceraldehyde] | 3.2x10^4 CFU/ml | 2.8x10^6 CFU/ml | 99 | 98.9 | 6.1x10^5 CFU/ml | –
7 | OC[C@@H](O)[C@@H](O)[C@H](O)[C@H](O)CO [Mannitol] | 2.7x10^8 CFU/ml | 2.3x10^8 CFU/ml | 0 | – | – | –
8 | C=C(OP(=O)(O)O)C(=O)O [Phosphoenolpyruvate] | – | – | – | 0 | 3.7x10^9 CFU/ml | –
9 | CC(=O)C(=O)O [Pyruvate] | – | – | – | 0 | 4.1x10^9 CFU/ml | –
10 | OC[C@@H](O)[C@@H](O)[C@@H](O)CO [Ribitol] | 4.9x10^6 CFU/ml | 5.7x10^6 CFU/ml | 0 | – | – | –
11 | OC[C@@H](O)[C@@H](O)[C@H](O)[C@@H](O)CO [Sorbitol] | 1.9x10^8 CFU/ml | 2.1x10^8 CFU/ml | 0 | – | – | –
12 | O=C[C@H](O)[C@@H](O)[C@H](O)CO [Xylose] | 6.9x10^7 CFU/ml | 6.7x10^7 CFU/ml | 0 | – | – | –
13 | OCCC1OCCC(O)O1 (stereo not shown) [reuterin, 4-hydroxy-2-2'-hydroxyethyl-1:3-dioxan] | – | – | – | – | – | concentrations at which L. reuteri itself is sensitive to reuterin [4]: ≥ 32 MIC units; decrease in the number of PFUs of the lambda phage [5]: > 1000 fold; decrease in the number of cells [6]: about 100 fold; viable cells (CFU/g beef) on McConkey's Agar [7]: reduced the initial population of bacteria and kept these numbers low; Sensitivity to reuterin [8]: S; Sensitivity to reuterin [9]: S; Sensitivity to reuterin [10]: S; Sensitivity to reuterin [11]: S; Sensitivity to reuterin [12]: S; Lactobacillus CFU and PFU decreases due to reuterin [13]: even greater declines in the PFUs than in the CFUs; stability to heat ([14]; 100 degrees C for 10 minutes, particularly at pH values of 9.0 or higher): labile to heat; resistance to nucleases and proteases ([14]; crude preparations): resistant to nucleases and proteases; solubility in water ([14]; crude preparations): highly soluble in water; indigenous population of bacteria lower than the control sample [15]: greater than 4 log units; log decrease in viable E. coli cells [16]: 7-8 log; in vitro growth of the protozoan parasite [17]: inhibits in vitro growth; MIC value [18]: idential MIC value as the biologically synthesized reuterin
14 | O=P(O)(O)OC(CO)CO [β-Glycerol-P] | 6.5x10^6 CFU/ml | 5.1x10^6 CFU/ml | 0 | 0 | 3.2x10^9 CFU/ml | –
15 | O=C(O)CCO [β-hydroxypropionic acid] | – | – | – | – | – | antimicrobial activity [1]: essentially devoid of antimicrobial activity
16 | Phosphoglycerate | – | – | – | 0 | 3.3x10^9 CFU/ml | –

Reference: EP0698347B1, “Food composition containing reuterin” (BIOGAIA BIOLOGICS AB, priority 1987, dated 1988)
